Reference: ChEMBL document CHEMBL1201862, “PubChem BioAssay data set” (2004)
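A five-concentration, 48-hour dose response in 96-well plates underlies each endpoint, interpolated linearly between surrounding concentrations. GI50 is the concentration that inhibits growth by half.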 The source made the active and inactive calls. Cut-off read from the data, not from the text of the source: active = GI50 up to about 1.1 µM and inactive = higher.

What was measured:
Assay in all cases: DTP human tumour cell line panel, 48 h
NCI-H460 = system: NCI-H460
SK-MEL-28 = system: SK-MEL-28
786-0 = system: 786-0
Malme-3M = system: Malme-3M
M14 = system: M14
HL-60 = system: HL-60
CCRF-CEM = system: CCRF-CEM
A498 = system: A498
SNB-75 = system: SNB-75
NCI/ADR-RES = system: NCI/ADR-RES
IGROV-1 = system: IGROV-1
SF-295 = system: SF-295
HOP-92 = system: HOP-92
HT-29 = system: HT-29
MDA-MB-231 = system: MDA-MB-231
Hs-578T = system: Hs-578T
UACC-257 = system: UACC-257
MCF7 = system: MCF7
RXF 393 = system: RXF 393

Measured: GI50

COc1ccc(C(c2ccccc2)N2C(=O)CCC2C(=O)O)cc1OC (centres undefined)
inactive: NCI-H460 > 100 µM | SK-MEL-28 14 µM | 786-0 > 100 µM | Malme-3M > 100 µM | M14 > 100 µM | HL-60 > 100 µM | CCRF-CEM > 100 µM | A498 > 100 µM | SNB-75 > 100 µM | NCI/ADR-RES > 100 µM | IGROV-1 > 100 µM | SF-295 > 100 µM | HOP-92 > 100 µM | HT-29 > 100 µM | MDA-MB-231 > 100 µM | Hs-578T > 100 µM | UACC-257 > 100 µM | MCF7 > 100 µM

O=C1c2cccnc2S(=O)(=O)N1c1ccc([N+](=O)[O-])cc1
inactive: NCI-H460 > 100 µM | SK-MEL-28 > 100 µM | 786-0 > 100 µM | Malme-3M 51.8 µM | M14 > 100 µM | HL-60 24 µM | CCRF-CEM 68.5 µM | A498 > 100 µM | SNB-75 > 100 µM | NCI/ADR-RES > 100 µM | IGROV-1 > 100 µM | SF-295 > 100 µM | HOP-92 > 100 µM | HT-29 > 100 µM | MDA-MB-231 > 100 µM | Hs-578T 64 µM | UACC-257 > 100 µM | MCF7 > 100 µM

Cc1ccc(C2(O)CS/C(=N\C34CC5CC(CC(C5)C3)C4)N2C(P(=O)(O)O)P(=O)(O)O)cc1 (centres undefined)
inactive: NCI-H460 41.3 µM | SK-MEL-28 > 100 µM | 786-0 > 100 µM | Malme-3M 63.7 µM | M14 > 100 µM | HL-60 37.7 µM | A498 82.8 µM | SNB-75 38.6 µM | NCI/ADR-RES 24.2 µM | IGROV-1 > 100 µM | SF-295 44.4 µM | HOP-92 > 100 µM | HT-29 > 100 µM | MDA-MB-231 56.6 µM | Hs-578T 73.1 µM | MCF7 65.2 µM

Cc1ccc2ccccc2c1NC1=NCCO1
inactive: NCI-H460 33.7 µM | SK-MEL-28 > 100 µM | 786-0 > 100 µM | Malme-3M > 100 µM | M14 > 100 µM | HL-60 58.5 µM | CCRF-CEM 70.3 µM | SNB-75 > 100 µM | NCI/ADR-RES > 100 µM | IGROV-1 > 100 µM | SF-295 > 100 µM | HOP-92 11.8 µM | RXF 393 > 100 µM | HT-29 83 µM | MDA-MB-231 > 100 µM | Hs-578T 24.9 µM | UACC-257 57.3 µM | MCF7 82 µM

CCOC(=O)CCC(NC(=O)c1ccc(Nc2nc3ccc(C(F)(F)F)cc3nc2-c2ccccc2)cc1)C(=O)OCC (centres undefined)
inactive: NCI-H460 56.6 µM | SK-MEL-28 40.3 µM | 786-0 > 100 µM | Malme-3M 23.1 µM | M14 19.7 µM | HL-60 > 63.4 µM | CCRF-CEM 25.8 µM | SNB-75 > 100 µM | NCI/ADR-RES > 100 µM | IGROV-1 > 100 µM | SF-295 > 100 µM | HOP-92 23.9 µM | RXF 393 49 µM | HT-29 > 100 µM | MDA-MB-231 21.6 µM | Hs-578T 24.4 µM | UACC-257 17.5 µM | MCF7 40.8 µM

Cc1ccc(C2SC(=N)Nc3c2c(C)nn3C(=O)c2ccncc2)cc1 (centres undefined)
inactive: NCI-H460 > 10 µM | SK-MEL-28 > 10 µM | 786-0 > 10 µM | Malme-3M > 10 µM | M14 > 10 µM | HL-60 > 10 µM | CCRF-CEM > 10 µM | SNB-75 > 10 µM | NCI/ADR-RES > 10 µM | IGROV-1 > 10 µM | SF-295 > 10 µM | HOP-92 > 10 µM | RXF 393 > 10 µM | HT-29 > 10 µM | MDA-MB-231 > 10 µM | Hs-578T > 10 µM | UACC-257 > 10 µM | MCF7 > 10 µM

CC1(C)OCC(C(O)C2OC(C)(C)OC2C=O)O1 (centres undefined)
inactive: SK-MEL-28 > 100 µM | 786-0 > 100 µM | Malme-3M > 100 µM | M14 > 100 µM | CCRF-CEM > 100 µM | A498 > 100 µM | SNB-75 > 100 µM | NCI/ADR-RES > 100 µM | IGROV-1 > 100 µM | SF-295 > 100 µM | HT-29 > 100 µM | MDA-MB-231 > 100 µM | Hs-578T > 100 µM | UACC-257 > 100 µM | MCF7 > 100 µM

COc1cc2c(c(OC)c1OC)C(=O)CC2N (centres undefined)
inactive: NCI-H460 > 100 µM | SK-MEL-28 > 100 µM | 786-0 > 100 µM | Malme-3M > 100 µM | M14 > 100 µM | HL-60 > 100 µM | CCRF-CEM > 100 µM | A498 > 100 µM | SNB-75 > 100 µM | NCI/ADR-RES > 100 µM | IGROV-1 > 100 µM | SF-295 > 100 µM | HOP-92 > 100 µM | HT-29 > 100 µM | MDA-MB-231 > 100 µM | Hs-578T > 100 µM | UACC-257 > 100 µM | MCF7 > 100 µM

O=C(O)CSC(CC(=O)c1ccc(Cl)cc1)c1ccc(Cl)cc1 (centres undefined)
inactive: NCI-H460 30.8 µM | 786-0 21.8 µM | M14 42.1 µM | HL-60 2.37 µM | CCRF-CEM 8.71 µM | A498 41.6 µM | SNB-75 49.8 µM | NCI/ADR-RES 38.7 µM | IGROV-1 19.7 µM | SF-295 42.4 µM | HOP-92 25.8 µM | HT-29 22.1 µM | MDA-MB-231 42 µM | Hs-578T 34.6 µM | UACC-257 21.2 µM | MCF7 22.2 µM

COC1O[C@@H]2CCN3C(=O)[C@@H](OC(=O)c4ccc([N+](=O)[O-])cc4)[C@H]1C23 (some centres undefined)
inactive: NCI-H460 > 100 µM | 786-0 > 100 µM | M14 > 100 µM | CCRF-CEM > 100 µM | A498 64.7 µM | SNB-75 > 100 µM | NCI/ADR-RES > 100 µM | IGROV-1 > 100 µM | SF-295 > 100 µM | HOP-92 > 100 µM | RXF 393 > 100 µM | HT-29 > 100 µM | MDA-MB-231 > 100 µM | Hs-578T > 100 µM | UACC-257 > 100 µM | MCF7 > 100 µM

c1ccc(CC2COC(c3cccs3)=N2)cc1 (centres undefined)
inactive: NCI-H460 > 86.5 µM | SK-MEL-28 > 100 µM | 786-0 > 100 µM | Malme-3M > 100 µM | M14 > 100 µM | HL-60 37.3 µM | CCRF-CEM 38.1 µM | SNB-75 42.6 µM | NCI/ADR-RES 48.5 µM | IGROV-1 > 100 µM | SF-295 > 86.3 µM | HOP-92 21.4 µM | RXF 393 24.5 µM | HT-29 > 100 µM | MDA-MB-231 > 72.6 µM | Hs-578T 49.5 µM | UACC-257 > 100 µM | MCF7 17.9 µM
